In ChEMBL document CHEMBL5584236, “Development of novel bisphenol derivatives with a membrane-targeting mechanism as potent gram-positive antibacterial agents” (Eur J Med Chem, 2024):
Activity calls are given as the source filed them. The rule behind the calls is not given here.

Legend:
Staphylococcus aureus [1] = assay: Antibacterial activity against methicillin-resistant Staphylococcus aureus NCTC10442 assessed as reduction in microbial growth incubated for 22 to 24 hrs by CLSI based broth microdilution method; format: functional; settings: time 22-24 hrs
[2] = system: Staphylococcus epidermidis; assay: Antibacterial activity against Staphylococcus epidermidis ATCC12228 assessed as reduction in microbial growth incubated for 22 to 24 hrs by CLSI based broth microdilution method; format: functional; settings: time 22-24 hrs
Staphylococcus aureus [3] = assay: Bactericidal activity against methicillin-resistant Staphylococcus aureus NCTC10442 assessed as cell killing at 8 times of MIC measured with in 1 hr by time kill assay relative to control; format: functional
Staphylococcus aureus [4] = assay: Bactericidal activity against methicillin-resistant Staphylococcus aureus NCTC10442 assessed as cell killing at 4 to 8 times of MIC measured up to 24 hrs by time kill assay; format: functional, organism-based
Staphylococcus aureus [5] = assay: Bactericidal activity against Staphylococcus aureus ATCC29213 assessed as log reduction in bacterial load at 8 times of MIC measured with in 0.5 hrs by time kill assay; format: functional
[6] = Cytotoxicity against mouse NCTC clone 929 cells assessed as viable cells at 100 ug/ml incubated for 24 hrs by CCK-8 assay relative to control; format: toxicity, cell-based; settings: NCTC clone 929 (L929) cells, at 100 µg/mL, read-out: Activity
Staphylococcus aureus [7] = assay: Induction of membrane permeabilization in Staphylococcus aureus ATCC29213 assessed as increase in fluorescence intensity measured upto 60 mins by SYTOX green assay; format: functional, organism-based
Staphylococcus aureus [8] = assay: Antibacterial activity against Staphylococcus aureus ATCC29213 assessed as reduction in bacterial growth incubated for 22 to 24 hrs in presence of NaCl by CLSI based broth microdilution method; format: functional; settings: time 22-24 hrs
Staphylococcus aureus [9] = assay: Antibacterial activity against Staphylococcus aureus ATCC29213 assessed as reduction in bacterial growth incubated for 22 to 24 hrs in presence of MgCl2 by CLSI based broth microdilution method; format: functional; settings: time 22-24 hrs
Staphylococcus aureus [10] = assay: Antibacterial activity against Staphylococcus aureus ATCC29213 assessed as reduction in bacterial growth incubated for 22 to 24 hrs in presence of CaCl2 by CLSI based broth microdilution method; format: functional; settings: time 22-24 hrs
Staphylococcus aureus [11] = assay: Antibacterial activity against methicillin-resistant Staphylococcus aureus N315 assessed as reduction in bacterial growth incubated for 22 to 24 hrs in presence of NaCl by CLSI based broth microdilution method; format: functional; settings: time 22-24 hrs
Staphylococcus aureus [12] = assay: Antibacterial activity against methicillin-resistant Staphylococcus aureus N315 assessed as reduction in bacterial growth incubated for 22 to 24 hrs in presence of ZnSO4.7H2O by CLSI based broth microdilution method; format: functional; settings: time 22-24 hrs
Staphylococcus aureus [13] = assay: Antibacterial activity against methicillin-resistant Staphylococcus aureus N315 assessed as reduction in bacterial growth incubated for 22 to 24 hrs in presence of FeCl3 by CLSI based broth microdilution method; format: functional; settings: time 22-24 hrs
Staphylococcus aureus [14] = assay: Antibacterial activity against methicillin-resistant Staphylococcus aureus NCTC10442 assessed as reduction in bacterial growth incubated for 22 to 24 hrs in presence of NaCl by CLSI based broth microdilution method; format: functional; settings: time 22-24 hrs
Staphylococcus aureus [15] = assay: Antibacterial activity against methicillin-resistant Staphylococcus aureus NCTC10442 assessed as reduction in bacterial growth incubated for 22 to 24 hrs in presence of KCl by CLSI based broth microdilution method; format: functional; settings: time 22-24 hrs
Staphylococcus aureus [16] = assay: Antibacterial activity against methicillin-resistant Staphylococcus aureus NCTC10442 assessed as reduction in bacterial growth incubated for 22 to 24 hrs in presence of CaCl2 by CLSI based broth microdilution method; format: functional; settings: time 22-24 hrs
Staphylococcus aureus [17] = assay: Antibacterial activity against methicillin-resistant Staphylococcus aureus NCTC10442 assessed as reduction in bacterial growth incubated for 22 to 24 hrs in presence of ZnSO4.7H2O by CLSI based broth microdilution method; format: functional; settings: time 22-24 hrs
Staphylococcus aureus [18] = assay: Antibacterial activity against methicillin-resistant Staphylococcus aureus NCTC10442 assessed as reduction in bacterial growth incubated for 22 to 24 hrs in presence of FeCl2 by CLSI based broth microdilution method; format: functional; settings: time 22-24 hrs
Staphylococcus aureus [19] = assay: Antibacterial activity against methicillin-resistant Staphylococcus aureus NCTC10442 assessed as reduction in bacterial growth incubated for 22 to 24 hrs in presence of FeCl3 by CLSI based broth microdilution method; format: functional; settings: time 22-24 hrs
Staphylococcus aureus [20] = assay: Synergistic […] activity against methicillin-resistant Staphylococcus aureus NCTC10442 assessed as fractional inhibitory concentration index incubated for 22 to 24 hrs in presence of linezolid by CLSI based broth microdilution method; format: functional; settings: time 22-24 hrs
Staphylococcus aureus [21] = assay: Synergistic […] activity against Staphylococcus aureus ATCC29213 assessed as fractional inhibitory concentration index incubated for 22 to 24 hrs in presence of tobramycin by CLSI based broth microdilution method; format: functional; settings: time 22-24 hrs
Klebsiella pneumoniae [22] = assay: Synergistic […] activity against Klebsiella pneumoniae ATCC10031 assessed as fractional inhibitory concentration index incubated for 22 to 24 hrs in presence of levofloxacin by CLSI based broth microdilution method; format: functional; settings: time 22-24 hrs
Klebsiella pneumoniae [23] = assay: Synergistic […] activity against Klebsiella pneumoniae ATCC10031 assessed as fractional inhibitory concentration index incubated for 22 to 24 hrs in presence of tobramycin by CLSI based broth microdilution method; format: functional; settings: time 22-24 hrs
Klebsiella pneumoniae [24] = assay: Synergistic […] activity against Klebsiella pneumoniae ATCC10031 assessed as fractional inhibitory concentration index incubated for 22 to 24 hrs in presence of meropenem by CLSI based broth microdilution method; format: functional; settings: time 22-24 hrs
Acinetobacter baumannii [25] = assay: Synergistic […] activity against Acinetobacter baumannii ATCC17978 assessed as fractional inhibitory concentration index incubated for 22 to 24 hrs in presence of levofloxacin by CLSI based broth microdilution method; format: functional; settings: time 22-24 hrs
Acinetobacter baumannii [26] = assay: Synergistic […] activity against Acinetobacter baumannii ATCC17978 assessed as fractional inhibitory concentration index incubated for 22 to 24 hrs in presence of gentamicin by CLSI based broth microdilution method; format: functional; settings: time 22-24 hrs
Acinetobacter baumannii [27] = assay: Synergistic […] activity against Acinetobacter baumannii ATCC17978 assessed as fractional inhibitory concentration index incubated for 22 to 24 hrs in presence of meropenem by CLSI based broth microdilution method; format: functional; settings: time 22-24 hrs
[28] = Cytotoxicity against mouse NCTC clone 929 cells assessed as viable cells at 3.125 ug/ml incubated for 24 hrs by CCK-8 assay relative to control; format: toxicity, cell-based; settings: NCTC clone 929 (L929) cells, at 3.125 µg/mL, read-out: Activity
[29] = Cytotoxicity against mouse NCTC clone 929 cells assessed as viable cells at 25 ug/ml incubated for 24 hrs by CCK-8 assay relative to control; format: toxicity, cell-based; settings: NCTC clone 929 (L929) cells, at 25 µg/mL, read-out: Activity
[30] = Cytotoxicity against mouse NCTC clone 929 cells assessed as viable cells at 50 ug/ml incubated for 24 hrs by CCK-8 assay relative to control; format: toxicity, cell-based; settings: NCTC clone 929 (L929) cells, at 50 µg/mL, read-out: Activity
[31] = Cytotoxicity against HEK293 cells assessed as viable cells at 3.125 ug/ml incubated for 24 hrs by CCK-8 assay relative to control; format: toxicity, cell-based; settings: human, at 3.125 µg/mL, read-out: Activity
[32] = Cytotoxicity against HEK293 cells assessed as viable cells at 25 ug/ml incubated for 24 hrs by CCK-8 assay relative to control; format: toxicity, cell-based; settings: human, at 25 µg/mL, read-out: Activity

COC(=O)[C@H](CCCNC(=N)N)NC(=O)[C@H](CCCNC(=N)N)NC(=O)COc1ccc(S(=O)(=O)c2ccc(OC/C=C(/C)CCC=C(C)C)cc2)cc1
MIC (Staphylococcus aureus [1]): 0.78 µg/mL
MIC [2]: 1.56 µg/mL
Activity (Staphylococcus aureus [3]): 99.99%
Activity (Staphylococcus aureus [4]): Active
log(activity) (Staphylococcus aureus [5]): 3
viability at 24 h, 100 ug/ml [6]: 74%
Activity (Staphylococcus aureus [7]): Dose-Dependent Effect
MIC (Staphylococcus aureus [8]): 1.56 µg/mL
MIC (Staphylococcus aureus [9]): 1.56 µg/mL
MIC (Staphylococcus aureus [10]): 3.12 µg/mL
MIC (Staphylococcus aureus [11]): 1.56 µg/mL
MIC (Staphylococcus aureus [12]): 1.56 µg/mL
MIC (Staphylococcus aureus [13]): 1.56 µg/mL
MIC (Staphylococcus aureus [14]): 1.56 µg/mL
MIC (Staphylococcus aureus [15]): 1.56 µg/mL
MIC (Staphylococcus aureus [16]): 3.12 µg/mL
MIC (Staphylococcus aureus [17]): 1.56 µg/mL
MIC (Staphylococcus aureus [18]): 1.56 µg/mL
MIC (Staphylococcus aureus [19]): 1.56 µg/mL
fractional inhibitory concentration index (FICI) (Staphylococcus aureus [20]): 0.27
fractional inhibitory concentration index (FICI) (Staphylococcus aureus [21]): 0.38
fractional inhibitory concentration index (FICI) (Klebsiella pneumoniae [22]): 0.56
fractional inhibitory concentration index (FICI) (Klebsiella pneumoniae [23]): 0.375
fractional inhibitory concentration index (FICI) (Klebsiella pneumoniae [24]): 0.56
fractional inhibitory concentration index (FICI) (Acinetobacter baumannii [25]): 0.25
fractional inhibitory concentration index (FICI) (Acinetobacter baumannii [26]): 0.28
fractional inhibitory concentration index (FICI) (Acinetobacter baumannii [27]): 0.25
viability at 24 h, 3.125 ug/ml [28]: 92.6%
viability at 24 h, 25 ug/ml [29]: 87.6%
viability at 24 h, 50 ug/ml [30]: 84.7%
viability at 24 h, 3.125 ug/ml [31]: 102%
viability at 24 h, 25 ug/ml [32]: 93.8%
